Assay results taken from patent US20080113073A1, “Hydroxydeoxybenzoins And The Use Thereof to Mask A Bitter Taste” (SYMRISE GMBH & CO. KG, priority 2005, published 2008).

Assays:
[1] = test system: sweet impression of a sucrose solution; test: Enhancement of the sweet impression of a sucrose solution, rated by a group of experts (0 not sweet to 10 extremely sweet); type: in vivo
Description: In order to quantify the enhancement of the sweet impression, the sweetness of a sucrose solution comprising 5% and of a sample comprising 5% sucrose and an amount of compound 2 was determined by a group of experts (rating 0 [not sweet] to 10 [extremely sweet]). The evaluation was carried out by calculating the […] (in %) in the sweet impression from the average values of the assessments of the sucrose solution or of the solution comprising sucrose and compound 2.

[2] = test system: bitter impression of a caffeine solution; test: Bitter reduction of a caffeine solution, rated by a group of experts (0 not bitter to 10 extremely bitter); type: in vivo; settings: for Bitter impression (1-10) with: 500 ppm caffeine plus 100 ppm substance, 95% confidence intervals given as error; for % reduction in the bitter impression: 500 ppm caffeine, 100 ppm substance, calculated from average ratings without/with substance
Description: In order to quantify the reduction in the bitter impression, the bitterness of a caffeine solution comprising 500 ppm and of a sample comprising 500 ppm of caffeine and a variable amount of the compound of the example was determined by a group of experts (rating 0 [not bitter] to 10 [extremely bitter]). The evaluation was carried out by calculating the reduction (in %) in the bitter impression from the average values of the assessments of the caffeine solution or the solutions containing caffeine and compound of the example. 2,4-Dihydroxybenzoic acid (2,4-DHB) was used as comparison in accordance with U.S. Pat. No. 5,643,941.

[3] = test system: sweetness impression of sugared low-fat yoghurt; test: Sweetness enhancement in low-fat yoghurt with 5% sugar, coded tasting by 16 testers (scale 0 to 10); type: in vivo
From the text: 5% sugar was stirred into a commercially available natural yoghurt (without additives) having a fat content of 0.1% (sample 1). 200 ppm of compound 2 (Example 2), which had previously been dissolved in a minimal amount of ethanol, were additionally incorporated into a sample 2. Samples 1 and 2 were presented in coded form, in a different but predetermined order, to 16 testers for tasting. The testers had to note the sweetness impression on a scale of from 0 (not present) to 10 (extreme sweetness). In addition, the testers were to note other taste impressions.

[4] = test system: taste; settings: studied within the context of various sweeteners; cited from earlier work
[5] = test system: taste of caffeine; settings: in vivo; cited from earlier work

## COc1cc(CC(=O)c2ccc(O)cc2O)ccc1O [Compound 2, 1-(2,4-Dihydroxyphenyl)-2-(4-hydroxy-3-methoxyphenyl)-ethanone]
[1]; 5% sucrose plus 100 ppm substance, standard deviations given as error
  Sweet impresssion (1-10) with: 5.9 ± 1.5
[1]; 5% sucrose, 100 ppm substance, calculated from average ratings
  % enhancement of the sweet impression: 18%
[2]
  Bitter impression (1-10) with: 4.3 ± 0.8
  % reduction in the bitter impression: 10%
[3]; of 16 testers, 4 found sample 1 sweeter, 2 found both equally sweet
  number of testers who found the sample with compound sweeter: 10
[3]; sample 2 (200 ppm compound)
  further taste impression noted: sticky
[3]; sample 2 (200 ppm compound) versus sample 1
  preference of testers: preferred to sample 1 by the majority of testers
[3]; sample 2 (200 ppm compound) versus sample 1 in yoghurt with 5% sugar
  enhancement of the sweetness impression: 18%
[3]; sample 2: yoghurt 0.1% fat, 5% sugar, 200 ppm compound, sample 1 without compound rated 4.1
  average sweetness impression rating (0 to 10): 4.9

## COc1cc(CC(=O)c2c(O)cc(O)cc2O)ccc1O [Compound 1, 2-(4-Hydroxy-3-methoxyphenyl)-1-(2,4,6-trihydroxyphenyl)-ethanone]
[2]
  Bitter impression (1-10) with: 3.8 ± 0.9
  % reduction in the bitter impression: 23%

## COc1ccc(CC(=O)c2c(O)cc(O)cc2O)cc1O [2-(3-hydroxy-4-methoxyphenyl)-1-(2,4,6-trihydroxyphenyl)ethanone]
[4]
  taste of the compound itself: tasteless

## O=C([O-])c1ccc(O)cc1O.[K+] [2,4-Dihydroxybenzoic acid potassium salt]
[5]
  ability to suppress the taste of caffeine: not able to suppress the taste of caffeine

## O=C(O)c1ccc(O)cc1O [2,4-DHB, 2,4-Dihydroxybenzoic acid, reference compound]
[2]
  Bitter impression (1-10) with: 5.0 ± 1.0
  % reduction in the bitter impression: 3%
